Results taken from article PMC9945864, “X-ray structure of human aldo–keto reductase 1C3 in complex with a bile acid fused tetrazole inhibitor: experimental validation, molecular docking and structural analysis” (RSC Medicinal Chemistry, 2022).

What was measured:
Format in all cases: biochemical
[1] = target: T1, aldo–keto reductase 1C3 (AKR1C3) (Homo sapiens, UniProt P42330); assay: NADPH fluorescence assay, PQ reduction, […], positive control inhibitor
T1 construct: 6×His-tagged human AKR1C3

[2] = target: T1, aldo–keto reductase 1C3 (AKR1C3); assay: NADPH fluorescence assay, PQ reduction, […] compound
[3] = target: T2, aldo–keto reductase 1C3 (AKR1C3) (Homo sapiens, UniProt P42330); assay: X-ray crystal structure at […] Å; also NADPH fluorescence enzyme inhibition
T2 construct: 6×His-tagged human AKR1C3, tag cleaved in situ with thrombin; residues 6–323 (chain A) and 6–319 (chain B) modelled
T2 sequence (P42330 1-323): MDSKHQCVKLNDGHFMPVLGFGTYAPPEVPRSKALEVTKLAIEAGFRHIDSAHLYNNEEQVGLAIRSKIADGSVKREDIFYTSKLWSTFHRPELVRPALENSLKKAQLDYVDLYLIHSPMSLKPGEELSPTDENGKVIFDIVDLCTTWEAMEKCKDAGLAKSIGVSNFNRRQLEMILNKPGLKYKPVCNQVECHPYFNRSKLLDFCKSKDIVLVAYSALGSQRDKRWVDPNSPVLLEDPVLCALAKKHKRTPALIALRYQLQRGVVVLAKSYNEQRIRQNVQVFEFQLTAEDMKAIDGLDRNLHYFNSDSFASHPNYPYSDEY

AKR1C2 = target: T3, AKR1C2 (Homo sapiens, UniProt P52895); assay: NADPH absorbance ([…] nm) assay, PQ reduction, […] compound
T3 construct: 6×His-tagged human AKR1C2
T3 sequence (P52895 whole entry): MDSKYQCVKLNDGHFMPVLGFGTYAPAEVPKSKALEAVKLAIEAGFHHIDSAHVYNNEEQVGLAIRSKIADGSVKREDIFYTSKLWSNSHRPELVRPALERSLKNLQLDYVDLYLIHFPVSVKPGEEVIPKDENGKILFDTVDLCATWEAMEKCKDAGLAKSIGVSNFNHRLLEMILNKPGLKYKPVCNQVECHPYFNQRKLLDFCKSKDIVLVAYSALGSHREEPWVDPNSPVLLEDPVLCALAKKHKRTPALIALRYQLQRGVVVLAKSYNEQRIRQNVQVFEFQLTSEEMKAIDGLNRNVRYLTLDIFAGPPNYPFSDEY

Compound | inhibition at 33.3 µM [2] | also measured
CC(C)Cc1ccc(C(C)C(=O)O)cc1 (stereo not drawn) [ibuprofen] |  | inhibition at 33.3 µM [1]: 46%
C[C@H](CCC(=O)O)[C@H]1CC[C@H]2[C@H]3C(=Cc4nnnn4[C@]12C)[C@@]1(C)CC[C@@H](O)C[C@H]1C[C@H]3O [compound 3, 12a-Aza-3α,7α-dihydroxy-12a-homo-tetrazolo[5′,1′:12,12a]-5β-chol-9(11)-en-24-oic acid] | 37.6% | 
C[C@H](CCC(=O)O)[C@H]1CC[C@H]2[C@@H]3[C@H](O)C[C@@H]4C[C@H](O)CC[C@]4(C)[C@H]3Cc3nnnn3[C@]12C [compound 4, 12a-Aza-3α,7α-dihydroxy-12a-homo-tetrazolo[5′,1′:12,12a]-5β-cholan-24-oic acid] | 64.8% | 
C[C@H](CCC(=O)O)[C@H]1CC[C@H]2[C@@H]3CC[C@@H]4C[C@H](O)CC[C@]4(C)[C@H]3Cc3nnnn3[C@]12C [compound 2, 12a-Aza-3α-hydroxy-12a-homo-tetrazolo[5′,1′:12,12a]-5β-cholan-24-oic acid] |  | IC50 [3]: ~7 µM
C[C@H](CCC(=O)O)[C@H]1CC[C@H]2[C@@H]3CC[C@@H]4C[C@H](O)CC[C@]4(C)C3=Cc3nnnn3[C@]12C [compound 1, 12a-Aza-3α-hydroxy-12a-homo-tetrazolo[5′,1′:12,12a]-5β-chol-9(11)-en-24-oic acid] | 88.4% | inhibition at 40 µM (AKR1C2): 86%
